Results on 19 compounds are retold here after patent US20240101521A1, “DIAMINOTRIAZINE COMPOUNDS” (BASF SE, priority 2021, published 2024).

Holding throughout (test): greenhouse pre-emergence herbicidal test
What all share (format): in vivo
Holding throughout (settings): scale 0 to 100

One assay relates to Abutilon theophrasti. From the text: (§1) The culture containers used were plastic flowerpots containing loamy sand with approximately 3.0% of humus as the substrate. The seeds of the test plants were sown separately for each species.
(§2) For the pre-emergence treatment, the active ingredients, which had been suspended or emulsified in water, were applied directly after sowing by means of finely distributing nozzles. The containers were irrigated gently to promote germination and growth and subsequently covered with transparent plastic hoods until the plants had rooted. This cover caused uniform germination of the test plants, unless this had been impaired by the active ingredients. For the post-emergence treatment, the test plants were first grown to a height of 3 to 15 cm, depending on the plant habit, and only then treated with the active ingredients which had been suspended or emulsified in water. For this purpose, the test plants were either sown directly and grown in the same containers, or they were first grown separately as seedlings and transplanted into the test containers a few days prior to treatment.
(§3) Depending on the species, the plants were kept at 10-25° C. or 20-35° C., respectively.
(§4) The test period extended over 2 to 4 weeks. During this time, the plants were tended, and their response to the individual treatments was evaluated.
(§5) Evaluation was carried out using a scale from 0 to 100. 100 means no emergence of the plants, or complete destruction of at least the aerial moieties, and 0 means no damage, or normal course of growth. A moderate herbicidal activity is given at values of at least 60, a good herbicidal activity is given at values of at least 70, and a very good herbicidal activity is given at values of at least 85.
(§6) The plants used in the greenhouse experiments were of the following species: […]

A further assay deals with Echinochloa crus-galli.
Source text: as §1, §2, §3, §4, §5, §6

The test system of another assay is Setaria faberi.
Source text: as §1, §2, §3, §4, §5, §6

The subject of another assay is Amaranthus retroflexus.
Source text: as §1, §2, §3, §4, §5, §6

For the compound `Nc1nc(Nc2c(F)c(F)cc(F)c2OCF)nc(C2(F)CCCC2)n1` [Example 107], the herbicidal activity was 100% in the assay with Abutilon theophrasti (pre-emergence, 62,5 g/ha); 100% in the assay on Echinochloa crus-galli (pre-emergence, 62,5 g/ha); 100% in the assay on Setaria faberi (pre-emergence, 62,5 g/ha).
As for `CC#CCOc1c(Br)cc(F)c(F)c1Nc1nc(N)nc(C2(F)CC2)n1` [Example 56], the herbicidal activity in the assay with Abutilon theophrasti (pre-emergence, 62,5 g/ha) was 90%; with Echinochloa crus-galli (pre-emergence, 62,5 g/ha), 90%; in the assay with Setaria faberi (pre-emergence, 62,5 g/ha) it was 100%.
`COc1c(Br)cc(F)c(F)c1Nc1nc(N)nc(C(C)(C)F)n1` [Example 6, N4-(5-Bromo-2,3-difluoro-6-methoxy-phenyl)-6-(1-fluoro-1-methyl-ethyl)-1,3,5-triazine-2,4-diamine]: the herbicidal activity in the assay with Abutilon theophrasti (pre-emergence, 125 g/ha) worked out at 100%; with Echinochloa crus-galli (pre-emergence, 125 g/ha), 100%; with Setaria faberi (pre-emergence, 125 g/ha), 100%.
With `CC#CCOc1c(Cl)cc(F)c(F)c1Nc1nc(N)nc(C2(F)CC2)n1` [Example 57], the herbicidal activity in the assay with Abutilon theophrasti (pre-emergence, 31 g/ha) was determined as 98%; in the assay with Echinochloa crus-galli (pre-emergence, 31 g/ha), 100%; in the assay with Setaria faberi (pre-emergence, 31 g/ha), 100%.
Consider `CCOc1c(Br)cc(Br)c(F)c1Nc1nc(N)nc(C(C)(C)F)n1` [Example 66], for which the herbicidal activity came out at 100% in the assay on Amaranthus retroflexus (pre-emergence, 62 g/ha); 100% in the assay on Echinochloa crus-galli (pre-emergence, 62 g/ha); 100% in the assay with Setaria faberi (pre-emergence, 62 g/ha).
`COc1c(Cl)c(F)c(F)c(F)c1Nc1nc(N)nc(C(C)(C)C)n1` [Example 162]: the herbicidal activity in the assay on Abutilon theophrasti (pre-emergence, 62,5 g/ha) was 95%; in the assay with Echinochloa crus-galli (pre-emergence, 62,5 g/ha) it was 95%; in the assay with Setaria faberi (pre-emergence, 62,5 g/ha), 100%.
For `CC#CCOc1c(Cl)cc(F)c(F)c1Nc1nc(N)nc(C(C)(F)CCl)n1` (stereo not drawn) [Example 84], the herbicidal activity in the assay with Abutilon theophrasti (pre-emergence, 62 g/ha) came out at 100%; in the assay on Echinochloa crus-galli (pre-emergence, 62 g/ha), 100%; with Setaria faberi (pre-emergence, 62 g/ha), 100%.
Consider `COc1c(Br)cc(F)c(F)c1Nc1nc(N)nc(C2(F)CCCC2)n1` [Example 81], for which the herbicidal activity with Abutilon theophrasti (pre-emergence, 62 g/ha) is 100%; in the assay on Echinochloa crus-galli (pre-emergence, 62 g/ha), 100%; with Setaria faberi (pre-emergence, 62 g/ha), 100%.
For `CC#CCOc1c(Cl)cc(F)c(F)c1Nc1nc(N)nc(C(F)C2CC2)n1` (stereo not drawn) [Example 94], the herbicidal activity in the assay with Amaranthus retroflexus (pre-emergence, 62 g/ha) turned out to be 100%; in the assay on Echinochloa crus-galli (pre-emergence, 62 g/ha), 100%; in the assay with Setaria faberi (pre-emergence, 62 g/ha) it was 100%.
For `COc1c(Br)cc(F)c(F)c1Nc1nc(N)nc(C(C)(F)F)n1` [Example 50], the herbicidal activity is recorded as 80% in the assay with Abutilon theophrasti (pre-emergence, 31 g/ha); 100% in the assay on Amaranthus retroflexus (pre-emergence, 31 g/ha); 100% in the assay with Setaria faberi (pre-emergence, 31 g/ha).
Take `CC#CC(C)Oc1c(Br)cc(F)c(F)c1Nc1nc(N)nc(C(C)(C)F)n1` (stereo not drawn) [Example 95]: the herbicidal activity in the assay on Amaranthus retroflexus (pre-emergence, 62 g/ha) amounted to 100%; in the assay with Echinochloa crus-galli (pre-emergence, 62 g/ha), 100%; in the assay on Setaria faberi (pre-emergence, 62 g/ha), 100%.
Regarding `CC#CCOc1c(Br)cc(F)c(F)c1Nc1nc(N)nc(C(C)(F)F)n1` [Example 47], the herbicidal activity in the assay with Amaranthus retroflexus (pre-emergence, 62,5 g/ha) is recorded as 100%; in the assay on Echinochloa crus-galli (pre-emergence, 62,5 g/ha), 100%; with Setaria faberi (pre-emergence, 62,5 g/ha), 100%.
For the compound `COc1c(Cl)cc(F)c(F)c1Nc1nc(N)nc(C(C)F)n1` (stereo not drawn) [Example 39], the herbicidal activity was found to be 100% with Amaranthus retroflexus (pre-emergence, 62,5 g/ha); 100% with Echinochloa crus-galli (pre-emergence, 62,5 g/ha); 100% in the assay on Setaria faberi (pre-emergence, 62,5 g/ha).
Take `CC#CCOc1c(Cl)cc(F)c(F)c1Nc1nc(N)nc(C(C)F)n1` (stereo not drawn) [Example 92]: the herbicidal activity is on record as 100% in the assay with Amaranthus retroflexus (pre-emergence, 62 g/ha); 100% with Echinochloa crus-galli (pre-emergence, 62 g/ha); 100% in the assay on Setaria faberi (pre-emergence, 62 g/ha).
`COc1c(Br)cc(Br)c(F)c1Nc1nc(N)nc(C(C)(C)F)n1` [Example 8]: the herbicidal activity is given as 100% with Abutilon theophrasti (pre-emergence, 125 g/ha); 100% in the assay on Echinochloa crus-galli (pre-emergence, 125 g/ha); 100% in the assay with Setaria faberi (pre-emergence, 125 g/ha).
In the case of `COc1c(Br)ccc(F)c1Nc1nc(N)nc(C2(F)CCCC2)n1` [Example 25], the herbicidal activity in the assay on Amaranthus retroflexus (pre-emergence, 250 g/ha) was determined as 100%; in the assay on Echinochloa crus-galli (pre-emergence, 250 g/ha), 100%; with Setaria faberi (pre-emergence, 250 g/ha), 100%.
With `CC#CCOc1c(Cl)ccc(F)c1Nc1nc(N)nc(C(C)(C)F)n1` [Example 42], the herbicidal activity with Amaranthus retroflexus (pre-emergence, 31 g/ha) is recorded as 100%; in the assay on Echinochloa crus-galli (pre-emergence, 31 g/ha), 100%; in the assay with Setaria faberi (pre-emergence, 31 g/ha), 100%.
Regarding `CC#CCOc1c(Br)cc(Br)c(F)c1Nc1nc(N)nc(C(C)(C)F)n1` [Example 64], the herbicidal activity in the assay with Abutilon theophrasti (pre-emergence, 62 g/ha) came to 100%; in the assay on Echinochloa crus-galli (pre-emergence, 62 g/ha), 100%; with Setaria faberi (pre-emergence, 62 g/ha), 100%.
For the compound `COc1c(Br)cc(C)c(F)c1Nc1nc(N)nc(C(C)(C)F)n1` [Example 73], the herbicidal activity in the assay on Amaranthus retroflexus (pre-emergence, 62 g/ha) is 100%; in the assay on Echinochloa crus-galli (pre-emergence, 62 g/ha), 100%; in the assay on Setaria faberi (pre-emergence, 62 g/ha), 100%.
